In US7985774B2, “Use of 3,5-seco-4-nor-cholestane derivatives for obtaining a cytoprotective drug” (Trophos, priority 2006, dated 2011):

Key:
C57BL6 mice = experiment: In vivo model of myocardium infarction (coronary occlusion-reperfusion)
Procedure: The purpose of this experiment is to study in vivo the cardioprotective properties of the compounds, 3,5-seco-4-nor-cholestan-5-one oxime-3-ol and 3,5-seco-4-nor-cholestan-5-one oxime-3-N,N-dimethylglycine ester, in a murine coronary occlusion-reperfusion model.
The compounds to be tested are administered intravenously in mice, 5 minutes before reperfusion of the myocardium ischemiated beforehand. As controls, carriers of the compounds beta-cyclodextrin (hereafter called βCD) and water, respectively, are administered under the same conditions as for the compounds.
In order to determine the effect of the tested compounds, the size of the infarction is measured after 24 hour reperfusion.
6-8 week old male C57BL6 mice are anaesthetized with sodium pentobarbital (50 mg/kg i.p.) and are ventilated after intubation with an O2/CO2 (95%/5%) mixture throughout the experiment. The surface electrocardiogram (ECG) is recorded and viewed on an oscilloscope all along surgery. Under strict asepsis conditions, the jugular vein is catheterized for intravenous administration of the compounds. A left lateral thoracotomy is performed and after pericardiotomy, a major branch of the left coronary artery is localized in the latero-posterior region of the left ventricle. A prolene no. 8 suture is positioned around this artery so as to form a mobile loop for making a temporary coronary occlusion.
All the mice were subject to a 30 minute temporary coronary occlusion. Ischemia of the myocardium region is confirmed by cyanosis of the myocardium surface and a deviation of the ST segment of the electrocardiogram.
Each of the compounds (treated group, n=10) or its solvent (control group, n=10) was administered as a bolus intravenously, 5 min before lifting the 30 minutes of coronary occlusion.
3,5-seco-4-nor-cholestan-5-one oxime-3-ol, dissolved beforehand to a final concentration of 0.46 mg/ml in a 30% βCD solution in phosphate buffer prepared by saturation followed by centrifugation, is administered at a dosage of 1 mg/kg.
3,5-seco-4-nor-cholestan-5-one oxime-3-N,N-dimethylglycine ester, dissolved beforehand to a final concentration of 1.56 mg/ml in sterile water by stirring and sonication, is administered at a dosage of 3.9 mg/kg.
The same volume of carrier is administered in the corresponding control groups.
Twenty four hours after the end of coronary occlusion, the mice are re-anaesthetized with sodium pentobarbital (50 mg/kg i.p.) and heparin is administered intravenously (Choay© heparin 1,000 IU/kg). A ligature of the coronary artery is achieved at the same location having been subject to the first occlusion 24 h previously. The mice are then euthanized with a lethal saturated dose of potassium chloride and their heart is rapidly excised and then mounted through the aorta artery on a retrograde perfusion system of the Langendorff type.
A 5% Evans blue solution is perfused retrogradely so that the healthy myocardium is colored in blue; the area made ischemic during the coronary occlusion, or <<area of risk AR>> remaining uncolored by default.
The left ventricle is then cut out into 5 slices with equal thicknesses (1 mm) by means of a slicer specially designed for hearts of mice (Les Isolants de Paris, Palaiseau), which are then weighed.
These slices are incubated in a 1% triphenyltetrazolium chloride solution (TTC, Sigma, Poole, UK) at pH 7.4 for 20 min at 37° C. and then set in 4% formol. TTC has the property of coloring the non-infarcted myocardium in red, and so showing the infarcted areas in white. Each heart slice is placed under a stereo microscope for taking a high definition digital photograph.
Quantification of infarction and the area of risk is carried out by planimetry (Scion Image, Scion, Frederick Md., USA) and referred to the weight of each slice.
The area of risk (non-blue area) is expressed as a percentage of the weight of the left ventricle. The infarction sizes are expressed as a percentage of the weight of the area of risk. […]

CD1 mice [1] = experiment: Acute hepatotoxicity: intoxication by Jo2 anti-Fas antibody and assaying ALATs; type: in vivo; conditions: blood 24 hrs after Jo2, control 2,860 ± 382
Source text: An acute model of hepatic damage may be induced by a single injection of the Jo2 anti-Fas antibody (Ogasawara et al., Nature, August 1993), producing severe hepatic damages and resembling viral, auto-immune or drug-induced hepatitis.
Alanine Aminotransferase (ALAT) also called Serum Glutamic Pyruvic Transaminase (SGPT) is an enzyme present in hepatocytes.
(§1) Male adult CD1 mice from the breeder “Elevage Janvier”, (Le Genest-Saint-Isle, France) were used. The animals were identified individually and had free access to water and food.
(§2) A stock solution of monoclonal hamster anti-mouse CD95 (Fas) antibody, called Jo2, from Pharmingen (BD Biosciences, ref. 554254 batch 32699) is prepared at a concentration of 1 mg/mL in water. The dilutions used are made in 0.9% sodium chloride in water.
(§3) The desired amount of 3,5-seco-4-nor-cholestan-5-one oxime-3-ol is weighed and milled into a fine powder, and then mixed with Cremophore EL (Sigma C5135) and absolute ethanol (Carlo Erba RPE 41571) (5% and 10% of the final volume, respectively). After complete dissolution, 0.9% sodium chloride in water is added extemporaneously (85% of the final volume).
Pretreatment with 3,5-seco-4-nor-cholestan-5-one oxime-3-ol is carried out with dosages of 10 and 30 mg/kg by intraperitoneal administration 1 hr before administering the Jo2 antibody. […]

CD1 mice [2] = experiment: Acute hepatotoxicity: lethal intoxication by the Jo2 antibody (survival); type: in vivo; conditions: for Survival rate: 24 hrs
Procedure: as §1, §2, §3
In this experiment, the effect of 3,5-seco-4-nor-cholestan-5-one oxime-3-ol on the survival of animals after administering a lethal dose of the Jo2 antibody is evaluated.
The Jo2 antibody is administered by intraperitoneal injection at a dose of 200 ou 250 μg/kg in a volume of 5 mL/kg of body weight.
3,5-seco-4-nor-cholestan-5-one oxime-3-ol is tested at 10 and 30 mg/kg, as a pretreatment, 1 hr before administering Jo2 or as a post-treatment, 1 hr after administering Jo2.
A control is obtained with animals receiving pretreatment by intraperitoneal administration, 1 hr before or 1 hr after administering the antibody, of an identical volume of solution having been used for preparing the compound to be tested, without the compound.

[3] = 1 mg/kg i.v. bolus in βCD 5 min before reperfusion, 30 min occlusion, 24 h reperfusion, mean±SEM

## CC(C)CCC[C@@H](C)[C@H]1CC[C@H]2[C@@H]3CC/C(=N\O)[C@](C)(CCCO)[C@H]3CC[C@]12C [3,5-seco-4-nor-cholestan-5-one oxime-3-ol]
C57BL6 mice; [3]
  Area of risk (percentage of the weight of the left ventricle): 9 +/− 4%
  Infarction size (percentage of the weight of the area of risk): 21 +/− 7%
C57BL6 mice; 1 mg/kg i.v., versus carrier (βCD)
  Infarction size reduction: 36.4%
CD1 mice [1]; 10 mg/kg i.p. 1 hr before Jo2 125 μg/kg i.p.
  ALAT activity Average +/− SEM: 511 ± 140 U/L
CD1 mice [1]; 30 mg/kg i.p. 1 hr before Jo2 125 μg/kg i.p.
  ALAT activity Average +/− SEM: 533 ± 150 U/L
CD1 mice [2]; Experience 5: Jo2 200 μg/kg, 10 mg/kg post-treatment, control 30
  Survival rate: 60%
CD1 mice [2]; Experience 5: Jo2 200 μg/kg, 10 mg/kg post-treatment, control 14/20
  Mortality (24 hrs)/total number of animals: 8/20
CD1 mice [2]; Experience 6: Jo2 200 μg/kg, 30 mg/kg post-treatment, control 20
  Survival rate: 60%
CD1 mice [2]; Experience 6: Jo2 200 μg/kg, 30 mg/kg post-treatment, control 16/20
  Mortality (24 hrs)/total number of animals: 8/20
CD1 mice [2]; Experiment 1: Jo2 250 μg/kg, 10 mg/kg pretreatment, control 25
  Survival rate: 65%
CD1 mice [2]; Experiment 1: Jo2 250 μg/kg, 10 mg/kg pretreatment, control 15/20
  Mortality (24 hrs)/total number of animals: 7/20
CD1 mice [2]; Experiment 2: Jo2 250 μg/kg, 30 mg/kg pretreatment, control 10
  Survival rate: 90%
CD1 mice [2]; Experiment 2: Jo2 250 μg/kg, 30 mg/kg pretreatment, control 18/20
  Mortality (24 hrs)/total number of animals: 2/20
CD1 mice [2]; Experiment 3: Jo2 250 μg/kg, 10 mg/kg post-treatment, control 10
  Survival rate: 15%
CD1 mice [2]; Experiment 3: Jo2 250 μg/kg, 10 mg/kg post-treatment, control 18/20
  Mortality (24 hrs)/total number of animals: 17/20
CD1 mice [2]; Experiment 4: Jo2 250 μg/kg, 30 mg/kg post-treatment, control 5
  Survival rate: 35%
CD1 mice [2]; Experiment 4: Jo2 250 μg/kg, 30 mg/kg post-treatment, control 19/20
  Mortality (24 hrs)/total number of animals: 13/20
